Assay results taken from PubChem BioAssay (NCI).
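Protocol summary: plate cells (96-well), add compound at 5 concentrations, incubate 48 h, interpolate endpoints linearly. TGI is the concentration that stops growth completely.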

Key:
Assay in all cases: DTP human tumour cell line panel, 48 h
MDA-MB-435 = system: MDA-MB-435
A498 renal = system: A498 renal
SK-MEL-2 melanoma = system: SK-MEL-2 melanoma
UACC-62 melanoma = system: UACC-62 melanoma
NCI-H23 lung = system: NCI-H23 lung
HCC-2998 colon = system: HCC-2998 colon
CCRF-CEM leukemia = system: CCRF-CEM leukemia
SF-295 CNS = system: SF-295 CNS
KM12 colon = system: KM12 colon
NCI-H460 lung = system: NCI-H460 lung
EKVX NSCLC = system: EKVX NSCLC
HL-60(TB) leukemia = system: HL-60(TB) leukemia
K-562 leukemia = system: K-562 leukemia
TK-10 renal = system: TK-10 renal
UACC-257 melanoma = system: UACC-257 melanoma
T-47D breast = system: T-47D breast
SK-OV-3 ovarian = system: SK-OV-3 ovarian
NCI-H522 lung = system: NCI-H522 lung
COLO 205 colon = system: COLO 205 colon
HOP-92 NSCLC = system: HOP-92 NSCLC
MOLT-4 leukemia = system: MOLT-4 leukemia
MCF7 breast = system: MCF7 breast
RXF 393 renal = system: RXF 393 renal
CAKI-1 renal = system: CAKI-1 renal
IGROV1 ovarian = system: IGROV1 ovarian
MALME-3M melanoma = system: MALME-3M melanoma
OVCAR-8 ovarian = system: OVCAR-8 ovarian
OVCAR-5 ovarian = system: OVCAR-5 ovarian
A549 NSCLC = system: A549 NSCLC
SK-MEL-5 melanoma = system: SK-MEL-5 melanoma
LOX IMVI melanoma = system: LOX IMVI melanoma
OVCAR-4 ovarian = system: OVCAR-4 ovarian
NCI-H226 lung = system: NCI-H226 lung
SF-268 CNS = system: SF-268 CNS
786-0 renal = system: 786-0 renal
HOP-62 NSCLC = system: HOP-62 NSCLC
NCI/ADR-RES ovarian = system: NCI/ADR-RES ovarian
HS 578T breast = system: HS 578T breast
UO-31 renal = system: UO-31 renal
MDA-MB-231 breast = system: MDA-MB-231 breast
HCT-116 colon = system: HCT-116 colon
M14 melanoma = system: M14 melanoma
HCT-15 colon = system: HCT-15 colon
RPMI-8226 leukemia = system: RPMI-8226 leukemia
MDA-N = system: MDA-N
SW-620 colon = system: SW-620 colon
U251 CNS = system: U251 CNS
PC-3 prostate = system: PC-3 prostate
HT29 colon = system: HT29 colon
BT-549 breast = system: BT-549 breast
SK-MEL-28 melanoma = system: SK-MEL-28 melanoma
SN12C renal = system: SN12C renal
DU-145 prostate = system: DU-145 prostate
OVCAR-3 ovarian = system: OVCAR-3 ovarian
SNB-19 CNS = system: SNB-19 CNS
ACHN renal = system: ACHN renal

Molecule `COc1cc(N(CCC#N)CCC#N)ccc1/C(N=Nc1cccc(C)c1)=N\NC(=O)c1ccc(C)cc1` has a TGI (MDA-MB-435) greater than 100 µM, a TGI (A498 renal) of 44.1 µM and a TGI (SK-MEL-2 melanoma) greater than 100 µM. The TGI (UACC-62 melanoma) was greater than 100 µM, the TGI (NCI-H23 lung) was greater than 100 µM and the TGI (HCC-2998 colon) was greater than 100 µM. It also gave a TGI (CCRF-CEM leukemia) greater than 100 µM, a TGI (SF-295 CNS) greater than 100 µM and a TGI (KM12 colon) greater than 100 µM. The TGI (NCI-H460 lung) was greater than 100 µM, the TGI (EKVX NSCLC) was greater than 100 µM and the TGI (HL-60(TB) leukemia) was greater than 100 µM. For the same molecule, the TGI (K-562 leukemia) was greater than 100 µM, the TGI (TK-10 renal) was greater than 100 µM and the TGI (UACC-257 melanoma) was greater than 100 µM. The TGI (T-47D breast) was greater than 100 µM, the TGI (SK-OV-3 ovarian) was greater than 100 µM and the TGI (NCI-H522 lung) was greater than 100 µM. The TGI (COLO 205 colon) was greater than 100 µM, the TGI (HOP-92 NSCLC) was greater than 100 µM and the TGI (MOLT-4 leukemia) was greater than 100 µM. The TGI (MCF7 breast) was greater than 100 µM, the TGI (RXF 393 renal) was greater than 100 µM and the TGI (CAKI-1 renal) was greater than 100 µM. It also gave a TGI (IGROV1 ovarian) greater than 100 µM, a TGI (MALME-3M melanoma) greater than 100 µM and a TGI (OVCAR-8 ovarian) greater than 100 µM. It also gave a TGI (OVCAR-5 ovarian) greater than 100 µM, a TGI (A549 NSCLC) greater than 100 µM and a TGI (SK-MEL-5 melanoma) greater than 100 µM. For the same molecule, the TGI (LOX IMVI melanoma) was greater than 100 µM, the TGI (OVCAR-4 ovarian) was greater than 100 µM and the TGI (NCI-H226 lung) was greater than 100 µM. It also gave a TGI (SF-268 CNS) greater than 100 µM, a TGI (786-0 renal) greater than 100 µM and a TGI (HOP-62 NSCLC) greater than 100 µM. The TGI (NCI/ADR-RES ovarian) was greater than 100 µM, the TGI (HS 578T breast) was greater than 100 µM and the TGI (UO-31 renal) was greater than 100 µM. It also gave a TGI (MDA-MB-231 breast) greater than 100 µM, a TGI (HCT-116 colon) greater than 100 µM and a TGI (M14 melanoma) greater than 100 µM. The TGI (HCT-15 colon) was greater than 100 µM, the TGI (RPMI-8226 leukemia) was greater than 100 µM and the TGI (MDA-N) was greater than 100 µM. For the same molecule, the TGI (SW-620 colon) was greater than 100 µM, the TGI (U251 CNS) was greater than 100 µM and the TGI (PC-3 prostate) was greater than 100 µM. For the same molecule, the TGI (HT29 colon) was greater than 100 µM, the TGI (BT-549 breast) was greater than 100 µM and the TGI (SK-MEL-28 melanoma) was greater than 100 µM. It also gave a TGI (SN12C renal) greater than 100 µM, a TGI (DU-145 prostate) greater than 100 µM and a TGI (OVCAR-3 ovarian) greater than 100 µM. The TGI (SNB-19 CNS) was greater than 100 µM and the TGI (ACHN renal) was 63 µM.
